# Experimental data reported in US5086042A, “Peptides with sulfate ester groups” (Fisons Corporation, priority 1989, dated 1992).
# Non-standard residues stand in square brackets, D forms with d. Residues, ends and D or L forms follow the SMILES beside them. sY = N[C@@H](Cc1ccc(OS(=O)(=O)O)cc1)C(=O)O
# System: Male Sprague-Dawley rats
# Format: in vivo
# Details: rat, intraperitoneal; for % FEEDING INHIBITION 0.5 hr / % FEEDING INHIBITION 3 hr: 30 μg/kg, vs saline controls; for % FEEDING INHIBITION 0.5 hr / % FEEDING INHIBITION 0.5 hr (values marked *): 0.5 hr feeding period; for % FEEDING INHIBITION 3 hr / % FEEDING INHIBITION 3 hr (values marked *): 3 hr feeding period; for % FEEDING INHIBITION 3 hr: IA means inactive; for % FEEDING INHIBITION 3 hr (values marked *) / % FEEDING INHIBITION 0.5 hr (values marked *): 300 μg/kg, <10% inhibition at 30 μg/kg
# Procedure: The peptides of this invention have the ability to inhibit feeding activity in mammals. As a result they have utility in the prevention and treatment of obesity.
# Male Sprague-Dawley rats (weighing 300-350 g) are individually caged and maintained on a 12 hr. light, dark cycle and trained for at least 14 days to feed during a three hr period of the dark cycle but not the 21 hours preceding that three hr period. The day of the study, rats are dosed intraperitoneally with saline (controls) or test compound (dissolved in saline; usually at a concentration of 0.3 to 300 micrograms of test compound per kg of rat weight). Food is introduced 10 minutes after administration of saline or test compound. […] The % feeding inhibition for the 1/2 hr and 3 hr feeding periods obtained by administering a dose of 30 μg/kg of test compound is given in Table 2 for CCK-8 and various compounds of the invention. For example, the % feeding inhibition obtained with CCK-8 (first line of Table 2) was 70% for the 1/2 hr feeding period and 25% for the 3-hour period.
Compound,% FEEDING INHIBITION 0.5 hr,% FEEDING INHIBITION 3 hr,% FEEDING INHIBITION 3 hr (values marked *),% FEEDING INHIBITION 0.5 hr (values marked *)
"CSCC[C@H](NC(=O)[C@H](Cc1ccc(OS(=O)(=O)O)cc1)NC(=O)[C@@H](N)CC(=O)O)C(=O)NCC(=O)N[C@@H](Cc1c[nH]c2ccccc12)C(=O)N[C@@H](CCSC)C(=O)N[C@@H](CC(=O)O)C(=O)N[C@@H](Cc1ccccc1)C(N)=O [CCK-8, Asp-Tyr(SO3 H)-Met-Gly-Trp-Met-Asp-Phe-NH2, reference compound]",70%,25%,–,–
CSCC[C@H](NC(=O)[C@H](Cc1ccc(OS(=O)(=O)O)cc1)NC=O)C(=O)NCC(=O)N[C@@H](Cc1c[nH]c2ccccc12)C(=O)N[C@@H](CCSC)C(=O)N[C@@H](CC(=O)O)C(=O)N[C@@H](Cc1ccccc1)C(N)=O [For-Tyr(SO3 H)-Met-Gly-Trp-Met-Asp-Phe-NH2] (HELM PEPTIDE1{[O=C[*:2]].[O=C([C@H](Cc1ccc(OS(=O)(=O)O)cc1)N[*:1])[*:2]].M.G.W.M.D.F.[am]}$$$$V2.0),100%,66%,–,–
CSCC[C@H](NC(=O)[C@H](Cc1ccc(OS(=O)(=O)O)cc1)NC(=O)[C@@H](N)CC(=O)O)C(=O)NCC(=O)N[C@@H](Cc1c[nH]c2ccccc12)C(=O)N[C@@H](CCSC)C(=O)N[C@@H](CC(=O)O)C(=O)N[C@@H](Cc1ccc(Cl)cc1)C(N)=O [H-As-Tyr(SO3 H)-Met-Gly-Trp-Met-Asp-Phe(4-Cl)-NH2],54%,–,28%,–
CSCC[C@H](NC(=O)[C@H](Cc1c[nH]c2ccccc12)NC(=O)CNC(=O)[C@@H](CCSC)NC(=O)[C@H](Cc1ccc(OS(=O)(=O)O)cc1)NC(=O)[C@@H](N)CC(=O)O)C(=O)N[C@@H](CC(=O)O)C(=O)N[C@@H](Cc1ccccc1)C(N)=O [H-Asp-Tyr(SO3 H)-DMet-Gly-Trp-Met-Asp-Phe-NH3],17%,–,–,–
CC[C@H](C)[C@H](NC(=O)[C@H](Cc1ccc(OS(=O)(=O)O)cc1)NC(=O)[C@@H](N)CC(=O)O)C(=O)NCC(=O)N[C@@H](Cc1c[nH]c2ccccc12)C(=O)N[C@H](C(=O)N[C@@H](CC(=O)O)C(=O)N[C@@H](Cc1ccccc1)C(N)=O)[C@@H](C)CC [H-Asp-Tyr(SO3 H)-Ile-Gly-Trp-Ile-Asp-Phe-NH2] (HELM PEPTIDE1{D.[O=C([C@H](Cc1ccc(OS(=O)(=O)O)cc1)N[*:1])[*:2]].I.G.W.I.D.F.[am]}$$$$V2.0),85%,20%,–,–
CC(C)C[C@H](NC(=O)[C@H](Cc1ccc(OS(=O)(=O)O)cc1)NC(=O)[C@@H](N)CC(=O)O)C(=O)NCC(=O)N[C@@H](Cc1c[nH]c2ccccc12)C(=O)N[C@@H](CC(C)C)C(=O)N[C@@H](CC(=O)O)C(=O)N[C@@H](Cc1ccccc1)C(N)=O [H-Asp-Tyr(SO3 H)-Leu-Gly-Trp-Leu-Asp-Phe-NH2],89%,24%,–,–
NCCCC[C@H](NC(=O)[C@H](Cc1ccc(OS(=O)(=O)O)cc1)NC(=O)[C@@H](N)CC(=O)O)C(=O)NCC(=O)N[C@@H](Cc1c[nH]c2ccccc12)C(=O)N[C@@H](CCCCN)C(=O)N[C@@H](CC(=O)O)C(=O)N[C@@H](Cc1ccccc1)C(N)=O [H-Asp-Tyr(SO3 H)-Lys-Gly-Trp-Lys-Asp-Phe-NH2] (HELM PEPTIDE1{D.[O=C([C@H](Cc1ccc(OS(=O)(=O)O)cc1)N[*:1])[*:2]].K.G.W.K.D.F.[am]}$$$$V2.0),–,–,–,45%
CSCC[C@H](NC(=O)[C@H](Cc1c[nH]c2ccccc12)NC(=O)[C@@H](C)NC(=O)[C@H](CCSC)NC(=O)[C@H](Cc1ccc(OS(=O)(=O)O)cc1)NC(=O)[C@@H](N)CC(=O)O)C(=O)N[C@@H](CC(=O)O)C(=O)N[C@@H](Cc1ccccc1)C(N)=O [H-Asp-Tyr(SO3 H)-Met-DAla-Trp-Met-Asp-Phe-NH2] (HELM PEPTIDE1{D.[O=C([C@H](Cc1ccc(OS(=O)(=O)O)cc1)N[*:1])[*:2]].M.[dA].W.M.D.F.[am]}$$$$V2.0),16%,–,18%,–
CSCC[C@H](NC(=O)[C@H](Cc1ccc(OS(=O)(=O)O)cc1)NC(=O)[C@@H](N)CC(=O)O)C(=O)NCC(=O)N[C@H](Cc1c[nH]c2ccccc12)C(=O)N[C@@H](CCSC)C(=O)N[C@@H](CC(=O)O)C(=O)N[C@@H](Cc1ccccc1)C(N)=O [H-Asp-Tyr(SO3 H)-Met-Gly-DTrp-Met-Asp-Phe-NH2],–,–,–,42%
CSCC[C@H](NC(=O)[C@H](Cc1ccc(OS(=O)(=O)O)cc1)NC(=O)[C@@H](N)CC(=O)O)C(=O)NCC(=O)N[C@@H](Cc1c[nH]c2ccccc12)C(=O)N[C@H](CCSC)C(=O)N[C@@H](CC(=O)O)C(=O)N[C@@H](Cc1ccccc1)C(N)=O [H-Asp-Tyr(SO3 H)-Met-Gly-Trp-DMet-Asp-Phe-NH2],–,–,–,30%
CSCC[C@H](NC(=O)[C@H](Cc1ccc(OS(=O)(=O)O)cc1)NC(=O)[C@@H](N)CC(=O)O)C(=O)NCC(=O)N[C@@H](Cc1c[nH]c2ccccc12)C(=O)N[C@@H](CCSC)C(=O)N[C@@H](CC(N)=O)C(=O)N[C@@H](Cc1ccccc1)C(N)=O [H-Asp-Tyr(SO3 H)-Met-Gly-Trp-Met-Asn-Phe-NH2] (HELM PEPTIDE1{D.[O=C([C@H](Cc1ccc(OS(=O)(=O)O)cc1)N[*:1])[*:2]].M.G.W.M.N.F.[am]}$$$$V2.0),–,–,–,43%
CSCC[C@H](NC(=O)[C@H](Cc1ccc(OS(=O)(=O)O)cc1)NC(=O)[C@@H](N)CC(=O)O)C(=O)NCC(=O)N[C@@H](Cc1c[nH]c2ccccc12)C(=O)N[C@@H](CCSC)C(=O)N[C@@H](CC(=O)O)C(=O)N[C@@H](Cc1ccc(C)cc1)C(N)=O [H-Asp-Tyr(SO3 H)-Met-Gly-Trp-Met-Asp-Phe(4-Me)-NH2],57%,18%,–,–
CSCC[C@H](NC(=O)[C@H](Cc1ccc(OS(=O)(=O)O)cc1)NC(=O)[C@@H](N)CC(=O)O)C(=O)NCC(=O)N[C@@H](Cc1c[nH]c2ccccc12)C(=O)N[C@@H](CCSC)C(=O)N[C@@H](CC(=O)O)C(=O)N[C@@H](Cc1ccc(N)cc1)C(N)=O [H-Asp-Tyr(SO3 H)-Met-Gly-Trp-Met-Asp-Phe(4-NH2)-NH2],27%,–,–,–
CSCC[C@H](NC(=O)[C@H](Cc1ccc(OS(=O)(=O)O)cc1)NC(=O)[C@@H](N)CC(=O)O)C(=O)NCC(=O)N[C@@H](Cc1c[nH]c2ccccc12)C(=O)N[C@@H](CCSC)C(=O)N[C@@H](CC(=O)O)C(=O)N[C@@H](Cc1ccc([N+](=O)[O-])cc1)C(N)=O [H-Asp-Tyr(SO3 H)-Met-Gly-Trp-Met-Asp-Phe(4-NO2)-NH2],43%,17%,–,–
CCNC(=O)[C@H](Cc1ccccc1)NC(=O)[C@H](CC(=O)O)NC(=O)[C@H](CCSC)NC(=O)[C@H](Cc1c[nH]c2ccccc12)NC(=O)CNC(=O)[C@H](CCSC)NC(=O)[C@H](Cc1ccc(OS(=O)(=O)O)cc1)NC(=O)[C@@H](N)CC(=O)O [H-Asp-Tyr(SO3 H)-Met-Gly-Trp-Met-Asp-Phe-NHEt],16%,–,–,–
COc1ccc(C[C@H](NC(=O)[C@H](CC(=O)O)NC(=O)[C@H](CCSC)NC(=O)[C@H](Cc2c[nH]c3ccccc23)NC(=O)CNC(=O)[C@H](CCSC)NC(=O)[C@H](Cc2ccc(OS(=O)(=O)O)cc2)NC(=O)[C@@H](N)CC(=O)O)C(N)=O)cc1 [H-Asp-Tyr(SO3 H)-Met-Gly-Trp-Met-Asp-Tyr(Me)-NH2] (H-D[sY]MGWMDY(Me)-NH2),–,–,–,72%
CSCC[C@H](NC(=O)[C@H](Cc1ccc(OS(=O)(=O)O)cc1)NC(=O)[C@@H](N)CC(=O)O)C(=O)NCC(=O)N[C@@H](Cc1c[nH]c2ccccc12)C(=O)N[C@@H](CCSC)C(=O)N[C@H](CC(=O)O)C(=O)N[C@@H](Cc1ccccc1)C(N)=O [H-Asp-Tyr(SO3 H)-Met-Gly-Trp-Met-DAsp-Phe-NH2],32%,–,15%,–
CSCC[C@H](NC(=O)[C@H](Cc1ccc(OS(=O)(=O)O)cc1)NC(=O)[C@@H](N)CC(=O)O)C(=O)NCC(=O)N[C@@H](Cc1c[nH]c2ccccc12)C(=O)N[C@@H](CCSC)C(=O)N[C@@H](CC(=O)O)C(=O)N[C@H](Cc1ccccc1)C(N)=O [H-Asp-Tyr(SO3 H)-Met-Gly-Trp-Met],46%,–,14%,–
CSCC[C@H](NC(=O)[C@H](Cc1c[nH]c2ccccc12)NC(=O)CN(C)C(=O)[C@H](CCSC)NC(=O)[C@H](Cc1ccc(OS(=O)(=O)O)cc1)NC(=O)[C@@H](N)CC(=O)O)C(=O)N[C@@H](CC(=O)O)C(=O)N[C@@H](Cc1ccccc1)C(N)=O [H-Asp-Tyr(SO3 H)-Met-Sar-Trp-Met-Asp-Phe-NH2],–,–,–,55%
CSCC[C@H](NC(=O)[C@H](Cc1ccc(OS(=O)(=O)O)cc1)NC(=O)[C@@H](N)CC(=O)O)C(=O)NCC(=O)N[C@@H](Cc1ccc2ccccc2c1)C(=O)N[C@@H](CCSC)C(=O)N[C@@H](CC(=O)O)C(=O)N[C@@H](Cc1ccccc1)C(N)=O [H-Asp-Tyr(SO3)-Met-Gly-Nal-Met-Asp-Phe-NH2] (HELM PEPTIDE1{D.[O=C([C@H](Cc1ccc(OS(=O)(=O)O)cc1)N[*:1])[*:2]].M.G.[O=C([C@H](Cc1ccc2ccccc2c1)N[*:1])[*:2]].M.D.F.[am]}$$$$V2.0),–,–,–,52%
